Here are results for five compounds from patent US20160194308A1, “NOVEL PIPERIDINYL BENZOIMIDAZOLE DERIVATIVES AS MPGES-1 INHIBITORS” (NovaSAID AB, priority 2013, published 2016).

In data set [1] the target is T1, hERG potassium currents (CHO-K1 cells stably transfected with hERG) (Homo sapiens, UniProt Q12809).
T1 construct: expressed in transfected cells; host or cells: CHO-K1 cells (American Tissue Culture Collection), stably transfected
The data set is described as follows: Automated whole-cell patch-clamp hERG assay. It counts as cell-based. The settings on record: for IC50: Qpatch, tail current, CHO-K1 cells, 0.39 μM to 100 μM cumulatively; for IC50 ratio hERG/mPGEs-1: ratio of hERG IC50 to human mPGEs-1 IC50. How it is done:
The automated whole-cell patch-clamp hERG assay uses CHO-K1 cells obtained from American Tissue Culture Collection. hERG cDNA (GenBank sequence NM_000238) was subcloned into pSI vector (Promega). The CHO-K1 cells were co-transfected with this construct and pPUR (containing puromycin selective marker, BD Bioscience). After selection in puromycin for 10 days, single colonies were selected and verified with hERG potassium currents. The stably transfected cells were cultured in F-12 Kaighn's Nutrient Mixture medium (Invitrogen)+10% FBS at 37 C for 1-3 days. Subsequently the cells were harvested by trypsination and kept in serum free medium at room temperature before recording. The cells were washed and resuspended in extracellular solution before being applied to the patch clamp sites.
After whole cell configuration was achieved, the cell was held at −80 mV. A 50 millisecond pulse to −40 mV was delivered to measure the leaking current, which was subtracted from the tail current on-line. Then the cell was de-polarized to +20 mV for 2 seconds, followed by a second pulse to −40 mV to reveal hERG tail current. The paradigm was delivered once every 5 seconds to monitor the current amplitude. The extracellular solution (control) was applied first and the cell was stabilized in extracellular solution for 5 minutes. Then the test compound was applied from low concentrations (0.39 μM) to high concentrations (100 μM) cumulatively. The cell was incubated with each test concentration for 5 minutes. During the incubation, the cell was repeatedly stimulated using the voltage protocol described above, and the tail current amplitude was continuously monitored.
Data were acquired by Qpatch (Sophion Bioscience) and the degree of inhibition (%) was obtained by measuring the tail current amplitude before and after test compound incubation (the difference in current was normalized to control and multiplied by 100 to obtain the percent of inhibition). Concentration (log) response curves were fitted to a logistic equation (three parameters assuming complete block of the current at very high test compound concentrations) to generate estimates of the 50% inhibitory concentration (IC50). The concentration-response relationship of each compound was constructed from the percentage reductions of current amplitude by sequential concentrations (0.39 μM to 100 μM).
Further background information on the hERG assay is available in Expert Opin. Ther. Targets (2006) 10(2):319-327.

Data set [2] has as its target T2, recombinant membrane-bound human mPGEs-1 (Homo sapiens, UniProt O14684).
T2 sequence (O14684 1-152): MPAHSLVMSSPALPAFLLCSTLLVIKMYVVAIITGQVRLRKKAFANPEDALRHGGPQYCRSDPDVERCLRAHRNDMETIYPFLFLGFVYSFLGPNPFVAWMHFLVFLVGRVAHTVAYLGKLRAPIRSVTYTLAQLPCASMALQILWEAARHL
The data set is described as follows: Thiobarbituric acid assay (TBA-MDA assay), inhibition of mPGEs-1. The conditions noted are these: arithmetic mean values, human mPGEs-1 TBA-MDA assay. The data set is classed as biochemical. The source says: Malondialdehyde is a product of lipid peroxidation and reacts with thiobarbituric acid forming a red product that absorbs light at 535 nm (W. G. Niehaus, Jr and B. Samuelsson, Eur. J. Biochem 6, 126 (1968)) and is also fluorescent. The extinction coefficient of the TBA-MDA conjugate is 1.56×10^5 M^−1 cm^−1 (E. D. Wills. Biochem. J. 113, 315 (1969). The method used for detection of inhibition of mPGEs-1 is based on the detection of the amount of remaining PGH2. This method was described more than 20 years ago by Basevich et al (Bioorg. Khim. 1983, 9(5), 658-665).
The assay used was a modified variant and used citric acid instead of the TCA-TBA-HCl reagent described in the original assay. In this assay, recombinant membrane-bound human mPGEs-1 was incubated with PGH2. The reaction was stopped by adding citric acid to a final pH 3 and a large excess of iron(II) chloride (20 mM) to convert any remaining PGH2 into MDA and 12-HHT. TBA reagent was finally added (0.67%) and the samples were heated at 80° C. for 30 min. The fluorescence of the conjugate was measured at 485/545 nm.
The product of mPGEs-1 (PGE2) was not measured directly in this assay, but rather the remaining substrate (PGH2) indirectly by adding FeCl2 that converts PGH2 into MDA and 12-HHT. As a positive control, a known mPGEs-1 inhibitor, MK-886, was used and the inhibition afforded by the new inhibitors was compared with that obtained from MK-886.

T1 sequence (Q12809 whole entry): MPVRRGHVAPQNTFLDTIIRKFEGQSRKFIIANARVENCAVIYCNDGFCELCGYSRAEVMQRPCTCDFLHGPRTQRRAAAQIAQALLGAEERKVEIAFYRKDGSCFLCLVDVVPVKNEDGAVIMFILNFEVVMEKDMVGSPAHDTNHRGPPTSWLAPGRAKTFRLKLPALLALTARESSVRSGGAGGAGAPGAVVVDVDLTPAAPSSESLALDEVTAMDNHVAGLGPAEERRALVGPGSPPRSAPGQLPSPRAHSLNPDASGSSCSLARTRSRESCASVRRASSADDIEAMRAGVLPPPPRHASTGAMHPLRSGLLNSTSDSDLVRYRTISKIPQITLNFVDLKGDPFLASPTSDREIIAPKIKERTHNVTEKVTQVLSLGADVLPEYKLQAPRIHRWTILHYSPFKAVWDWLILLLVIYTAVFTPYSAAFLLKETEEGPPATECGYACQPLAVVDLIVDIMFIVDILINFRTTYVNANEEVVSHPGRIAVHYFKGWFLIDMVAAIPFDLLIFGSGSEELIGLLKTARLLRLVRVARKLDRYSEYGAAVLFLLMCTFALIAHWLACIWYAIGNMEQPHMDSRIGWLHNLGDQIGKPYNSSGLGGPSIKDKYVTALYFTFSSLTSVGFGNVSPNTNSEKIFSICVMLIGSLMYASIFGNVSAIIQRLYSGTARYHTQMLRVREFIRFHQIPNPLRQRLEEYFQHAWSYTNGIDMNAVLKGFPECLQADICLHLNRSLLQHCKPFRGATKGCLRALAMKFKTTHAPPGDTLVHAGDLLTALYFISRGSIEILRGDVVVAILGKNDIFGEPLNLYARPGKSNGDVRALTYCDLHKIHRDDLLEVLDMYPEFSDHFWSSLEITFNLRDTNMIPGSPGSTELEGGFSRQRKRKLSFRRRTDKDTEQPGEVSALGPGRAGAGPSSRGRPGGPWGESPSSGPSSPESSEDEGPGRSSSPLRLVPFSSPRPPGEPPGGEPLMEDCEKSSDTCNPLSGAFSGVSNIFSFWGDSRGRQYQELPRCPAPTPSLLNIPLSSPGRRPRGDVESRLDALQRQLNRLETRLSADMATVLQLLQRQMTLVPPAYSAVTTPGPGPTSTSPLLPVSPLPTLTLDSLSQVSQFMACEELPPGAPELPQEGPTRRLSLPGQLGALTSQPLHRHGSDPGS

`Cc1cc2c(cc1Cl)nc(N1CCC(C(=O)N[C@@H]3CCOC3)CC1)n2-c1ccc(C(F)(F)F)cn1` [Comparative Example 3, (R)-1-(5-chloro-6-methyl-1-(5-(trifluoromethyl)pyridin-2-yl)-1H-benzo[d]imidazol-2-yl)-N-(tetrahydrofuran-3-yl)-piperidine-4-carboxamide]: in data set [1], the midpoint of inhibition, the IC50, lay at 19000 nM and the “IC50 ratio hERG/mPGEs-1” value was 328.
With `Cc1cc2c(cc1Cl)nc(N1CCC(C(=O)N[C@H]3COC[C@@H]3O)CC1)n2-c1cccc(C(F)(F)F)n1` [Example 1, 1-(5-chloro-6-methyl-1-(6-(trifluoromethyl)pyridin-2-yl)-1H-benzo[d]imidazol-2-yl)-N-((3S,4R)-4-hydroxytetrahydrofuran-3-yl)piperidine-4-carboxamide], the IC50 in data set [2] is 38 nM; in data set [1] it was 38000 nM. Also, the “IC50 ratio hERG/mPGEs-1” value in data set [1] worked out at 1000.
For `Cc1cc2nc(N3CCC(C(=O)N[C@H]4COC[C@@H]4O)CC3)n(-c3cccc(C(F)(F)F)n3)c2cc1Cl` [Example 2, 1-(6-chloro-5-methyl-1-(6-(trifluoromethyl)pyridin-2-yl)-1H-benzo[d]imidazol-2-yl)-N-((3S,4R)-4-hydroxytetrahydrofuran-3-yl)piperidine-4-carboxamide] the same measures were 32 nM, more than 100000 nM and more than 3125.
For `Cc1cc2nc(N3CCC(C(=O)N[C@@H]4CCOC4)CC3)n(-c3ccc(C(F)(F)F)cn3)c2cc1Cl` [Comparative Example 4, (R)-1-(6-chloro-5-methyl-1-(5-(trifluoromethyl)pyridin-2-yl)-1H-benzo[d]imidazol-2-yl)-N-(tetrahydrofuran-3-yl)-piperidine-4-carboxamide], in data set [1], the IC50 turned out to be 14000 nM and the “IC50 ratio hERG/mPGEs-1” value is 304.
With `O=C(N[C@@H]1CCOC1)C1CCN(c2nc3cc(Cl)c(Cl)cc3n2-c2cccc(C(F)(F)F)n2)CC1` [Comparative Example 5, (R)-1-(5,6-dichloro-1-(6-(trifluoromethyl)pyridin-2-yl)-1H-benzo[d]imidazol-2-yl)-N-(tetrahydrofuran-3-yl)piperidine-4-carboxamide], the 50% inhibitory concentration (IC50) in data set [2] is 24 nM; in data set [1] it was 2100 nM. Moreover, the “IC50 ratio hERG/mPGEs-1” value in data set [1] came out at 88.
